Patent US10052320B2, “Substituted quinoxalines as FGFR kinase inhibitors” (ASTEX THERAPEUTICS LIMITED, priority 2011, dated 2018)
Each block holds one compound with its values, some of them ahead of it.

Tests used:
Format in all cases: cell-based
[1] = biological target: Ba/F3-FGFR3-transfected cells (Homo sapiens, UniProt P22607); assay: Ba/F3-FGFR3 (minus IL3) cellular proliferation assay, Alamar Blue; conditions: minus IL3, 384 well
How it was run: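 Counterscreen adds 10 ng/ml murine IL3, otherwise matching the IL3-free run. In both, FGFR3-transfected Ba/F3 cells (20000 or 10000 per well) incubate with compound for 24 h at 37° C. and 5% CO2; viability is read as resazurin fluorescence (540/590 nm) after 4 h with Alamar Blue.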

[2] = biological target: T1, Ba/F3-Flt3-transfected cells (Homo sapiens, UniProt P36888, cells depend on it, form not given); assay: Ba/F3-Flt3 (minus IL3) cellular proliferation assay, Alamar Blue; conditions: minus IL3
T1 sequence (P36888 1-993): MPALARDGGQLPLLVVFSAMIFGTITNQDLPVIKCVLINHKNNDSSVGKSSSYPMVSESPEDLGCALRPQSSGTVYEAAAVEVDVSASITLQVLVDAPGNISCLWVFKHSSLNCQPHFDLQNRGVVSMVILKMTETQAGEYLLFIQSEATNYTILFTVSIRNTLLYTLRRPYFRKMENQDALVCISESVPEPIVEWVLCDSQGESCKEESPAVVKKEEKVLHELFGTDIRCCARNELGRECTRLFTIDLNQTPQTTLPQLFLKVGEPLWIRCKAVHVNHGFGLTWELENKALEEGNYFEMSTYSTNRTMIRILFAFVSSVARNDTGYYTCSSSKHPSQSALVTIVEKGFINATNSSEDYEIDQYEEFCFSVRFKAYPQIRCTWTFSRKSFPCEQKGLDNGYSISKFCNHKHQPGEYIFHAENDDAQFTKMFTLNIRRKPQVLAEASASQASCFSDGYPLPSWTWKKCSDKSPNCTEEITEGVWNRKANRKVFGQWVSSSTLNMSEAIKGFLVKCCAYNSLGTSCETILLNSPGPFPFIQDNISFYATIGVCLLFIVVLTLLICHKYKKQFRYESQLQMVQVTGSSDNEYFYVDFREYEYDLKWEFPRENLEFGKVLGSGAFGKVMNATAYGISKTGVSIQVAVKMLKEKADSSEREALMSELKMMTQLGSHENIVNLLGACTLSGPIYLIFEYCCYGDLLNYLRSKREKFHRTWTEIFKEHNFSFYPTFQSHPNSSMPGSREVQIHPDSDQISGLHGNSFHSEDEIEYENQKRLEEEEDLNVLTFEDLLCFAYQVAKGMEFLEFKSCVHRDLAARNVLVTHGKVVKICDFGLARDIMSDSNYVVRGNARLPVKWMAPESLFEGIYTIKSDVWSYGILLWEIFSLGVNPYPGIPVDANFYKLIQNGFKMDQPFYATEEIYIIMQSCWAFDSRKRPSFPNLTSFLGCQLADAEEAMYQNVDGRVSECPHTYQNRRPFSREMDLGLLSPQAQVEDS

[3] = biological target: Ba/F3-FGFR4-transfected cells (Homo sapiens, UniProt P22455); assay: Ba/F3-FGFR4 cellular proliferation assay, Alamar Blue
How it was run: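 Alamar Blue fluorescence (540/590 nm, 4 h development) measured growth of FGFR4-transfected Ba/F3 cells after 24 h compound treatment at 37° C. Cells were seeded at 20000/well in RPMI-1640, 10% FBS.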

Ba/F3-FGFR4-transfected cells, sequence (P22455 whole entry, change not shown): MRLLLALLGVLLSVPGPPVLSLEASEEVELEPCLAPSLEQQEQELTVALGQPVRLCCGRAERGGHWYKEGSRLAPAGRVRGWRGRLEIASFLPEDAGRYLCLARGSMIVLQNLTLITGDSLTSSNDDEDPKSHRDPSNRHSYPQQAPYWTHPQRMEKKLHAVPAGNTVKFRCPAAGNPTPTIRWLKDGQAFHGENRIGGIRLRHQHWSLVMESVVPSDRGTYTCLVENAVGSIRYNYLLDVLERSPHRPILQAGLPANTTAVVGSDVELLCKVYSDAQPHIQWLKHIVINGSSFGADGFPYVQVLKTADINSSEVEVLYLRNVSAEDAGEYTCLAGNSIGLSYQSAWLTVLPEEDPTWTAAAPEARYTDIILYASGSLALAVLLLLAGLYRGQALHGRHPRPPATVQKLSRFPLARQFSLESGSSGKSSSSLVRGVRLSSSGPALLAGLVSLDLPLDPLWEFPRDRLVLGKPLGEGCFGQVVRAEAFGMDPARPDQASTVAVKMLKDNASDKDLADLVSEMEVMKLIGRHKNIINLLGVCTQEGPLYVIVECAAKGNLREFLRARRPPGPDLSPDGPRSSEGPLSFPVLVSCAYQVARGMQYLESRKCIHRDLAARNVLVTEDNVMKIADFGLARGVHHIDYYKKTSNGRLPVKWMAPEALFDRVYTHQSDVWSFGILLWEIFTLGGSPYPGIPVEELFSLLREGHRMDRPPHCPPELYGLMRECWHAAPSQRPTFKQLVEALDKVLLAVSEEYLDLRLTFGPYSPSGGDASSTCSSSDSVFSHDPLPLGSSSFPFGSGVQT
Ba/F3-FGFR3-transfected cells, sequence (P22607 whole entry, change not shown): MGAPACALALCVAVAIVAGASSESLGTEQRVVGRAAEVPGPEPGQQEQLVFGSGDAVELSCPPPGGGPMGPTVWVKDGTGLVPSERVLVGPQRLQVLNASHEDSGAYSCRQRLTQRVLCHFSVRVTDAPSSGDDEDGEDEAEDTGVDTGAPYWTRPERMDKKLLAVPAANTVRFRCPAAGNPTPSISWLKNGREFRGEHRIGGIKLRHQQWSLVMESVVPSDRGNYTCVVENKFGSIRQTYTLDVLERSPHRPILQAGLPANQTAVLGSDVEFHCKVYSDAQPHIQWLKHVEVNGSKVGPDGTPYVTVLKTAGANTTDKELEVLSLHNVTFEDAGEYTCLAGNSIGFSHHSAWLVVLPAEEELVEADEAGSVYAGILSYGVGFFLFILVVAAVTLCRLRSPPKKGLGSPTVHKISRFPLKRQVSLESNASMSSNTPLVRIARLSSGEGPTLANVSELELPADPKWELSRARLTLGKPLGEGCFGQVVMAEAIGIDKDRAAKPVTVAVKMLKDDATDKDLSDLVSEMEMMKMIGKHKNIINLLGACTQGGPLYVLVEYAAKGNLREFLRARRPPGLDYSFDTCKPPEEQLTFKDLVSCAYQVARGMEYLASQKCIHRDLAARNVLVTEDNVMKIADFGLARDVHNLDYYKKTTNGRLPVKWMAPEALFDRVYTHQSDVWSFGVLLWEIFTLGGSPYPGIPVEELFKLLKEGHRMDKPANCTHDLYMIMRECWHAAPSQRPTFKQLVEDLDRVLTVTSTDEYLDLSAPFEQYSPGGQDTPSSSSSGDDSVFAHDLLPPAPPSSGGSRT

SMILES: COc1cc(OC)cc(N(CCCO)c2ccc3ncc(-c4ccc(N5CCOCC5)nc4)nc3c2)c1 [Compound 124]
BAF3-FGFR 3 (MIN IL3) 384 well pIC50 [1]: ~6.64 | BAF3-FLT3 (MIN IL3) 384 well pIC50 [2]: <5 | BAF3-FGFR4 pIC50 [3]: 6.1

SMILES: COc1cc(OC)cc(N(CCCO)c2ccc3ncc(-c4ccc(N(C)C(=O)OC(C)(C)C)nc4)nc3c2)c1 [Compound 125]
BAF3-FGFR 3 (MIN IL3) 384 well pIC50 [1]: ~6.04 | BAF3-FLT3 (MIN IL3) 384 well pIC50 [2]: <5 | BAF3-FGFR4 pIC50 [3]: <5

SMILES: COc1cc(OC)cc(N(CCCNCC(F)(F)F)c2ccc3ncc(-c4ccc(N(C)C(=O)OC(C)(C)C)nc4)nc3c2)c1 [Compound 127]
BAF3-FGFR 3 (MIN IL3) 384 well pIC50 [1]: <5 | BAF3-FLT3 (MIN IL3) 384 well pIC50 [2]: <5 | BAF3-FGFR4 pIC50 [3]: <5

SMILES: COc1cc(OC)cc(N(CCCO)c2ccc3ncc(-c4ccnc(NC(=O)OC(C)(C)C)c4)nc3c2)c1 [Compound 128]
BAF3-FGFR 3 (MIN IL3) 384 well pIC50 [1]: <5 | BAF3-FLT3 (MIN IL3) 384 well pIC50 [2]: <5 | BAF3-FGFR4 pIC50 [3]: <5

Next, values leading:

BAF3-FGFR 3 (MIN IL3) 384 well pIC50 [1]: 5.57 | BAF3-FLT3 (MIN IL3) 384 well pIC50 [2]: <5 | BAF3-FGFR4 pIC50 [3]: 5.2
SMILES: COc1cc(OC)cc(N(CCO)c2ccc3ncc(-c4ccnc(C(=O)NCCCN)c4)nc3c2)c1 [Compound 123]

BAF3-FGFR 3 (MIN IL3) 384 well pIC50 [1]: 5.51 | BAF3-FLT3 (MIN IL3) 384 well pIC50 [2]: <5 | BAF3-FGFR4 pIC50 [3]: 5.1
SMILES: COc1cc(OC)cc(N(CCCO)c2ccc3ncc(-c4ccnc(C(=O)NCCCCN)c4)nc3c2)c1 [Compound 126]
